What was measured:
[1] = tested on: hiPSC-CMs (iCell2 Cardiomyocytes) 2D monolayers; assay: Membrane potential (action potential) recordings with FluoVolt voltage-sensitive dye on the CellOPTIQ platform; type: cell-based, human; conditions: for activity at 0.01 µM / activity at 0.03 µM / activity at 0.1 µM / activity at 0.3 µM: Homo sapiens, Cardiomyocyte, 0.5 h, 30 min, delta over DMSO 0.1%
Description: (§1) Cardiomyocytes (FUJIFILM Cellular Dynamics, Madison, WI, USA) were kept at −190 °C and prepared for culture as per the manufacturer’s instructions.
(§2) Standard fibronectin vs. Matrix Plus well coating: The cells were cultured using two different coatings in a humidified incubator at 37 °C with 5% CO2. First, 96-well glass-bottomed plates (MatTek, Ashland, MA) were coated with fibronectin ([…] in PBS supplemented with Ca^2+ and Mg^2+; Sigma, St. Louis, MO, USA) (defining FM). Second, CELLvo^TM Matrix Plus (StemBioSys, San Antonio, TX, USA), which were pre-coated on 96 well glass bottom plates and kept at 4 °C. On the day of plating, CELLvo^TM Matrix Plus plates were transferred to room temperature, rehydrated with phosphate buffer saline (PBS), incubated for 1 h at 37 °C, and washed 2× with PBS. Cells were introduced at a density of 50,000 cells/well to allow the formation of a confluent monolayer in each well (defined as MM). The maintenance protocols followed the manufacturer’s instructions and used the iCell^2 Cardiomyocytes Maintenance media for media changes every 2 days. Experiments were performed between days 5 and 6, as recommended by the manufacturers. Before beginning an experiment, cells were washed in serum-free media (SF media) (Fluorobrite DMEM, Gibco, Thermo Fisher Scientific, Horsham, UK).
(§3) The drug powders were dissolved in DMSO, and four stock concentrations at 1000× the final target concentration were prepared in DMSO. For the experiment, an intermediate concentration 2× the target solution was prepared in SF media. The addition of drugs to the cells was accomplished by replacing 50% of the well volume with the intermediate 2× solution. The same procedure was done for vehicle control using DMSO. The experimental number n = 8/concentration/testing compound in the FM or MM condition, and n = 36 for each positive or negative control in the FM or MM condition.
Cultures of hiPSC-CMs (5–6 days post-plating) were treated with FluoVolt dye (1:1000, Invitrogen, Cat# F10488) in SF media and incubated for 20 min at 37 °C with 5% CO2 and 80% humidity. Multi-well plates were placed in the environmentally controlled stage incubator (37 °C, 5% CO2, water-saturated air atmosphere) (Okolab Inc. Burlingame, CA) of the CellOPTIQ® platform (Clyde Biosciences Ltd., Glasgow, Scotland). The FluoVolt signal was recorded from a 0.2 mm × 0.2 mm area using a 40× (numerical aperture: NA 0.6) Excitation wavelength was 470 ± 10 nm using a light-emitting diode (LED), and emitted light was collected by two photomultipliers (PMTs) at 510–560 nm (channel 1) and 590–650 nm (channel 2), respectively. LED, PMT, and associated power supplies and amplifiers were supplied by Cairn Research Ltd. (Kent, UK) and digitized at 10 kHz and stored on a computer hard drive. In the case of FluoVolt-based action potential recordings, the short wavelength (channel 1, […]) was analyzed for action potential features.
(§4) The dye FluoVolt is loaded into the surface membrane (outer leaflet), and the dye remains within the membrane for many dots, allowing intermittent voltage measurements over the experimental period. In this study, measurements were restricted to within 30 mins of application of the drug. The measurements were made on the same area before/after drug/DMSO addition. […] Baseline spontaneous electrical activity and the associated contractility signal were recorded by capturing 10 s segments of fluorescent signal and video for 2D plates and 15 s for organoids from each well prior to compound addition. Drugs were tested at four concentrations in n = 8 independent replicates (i.e., 8 wells from a single plating) at each concentration. A vehicle control was included for each drug. A 10 s or 15 s recording was then taken 30 min after exposure to the drug or vehicle with only one concentration applied/well.

[2] = tested on: hiPSC-CMs (iCell2 Cardiomyocytes) 2D monolayers; assay: Contractility measurements using video imaging (ContractilityTool / MUSCLEMOTION); type: cell-based, human; conditions: Homo sapiens, Cardiomyocyte, 0.5 h, 30 min, delta over DMSO 0.1%
Description: as §1, §2, §3
as §4, with “applied/well. Offline analysis was performed using proprietary software (CellOPTIQ®).” for “applied/well.”
Short periods (10 s or 15 s) of video were analyzed using the ContractilityTool application (developed by F.L. Burton), which is an implementation of the MUSCLEMOTION algorithm.

[3] = FM monolayer, read-out: APD30 (%DD)
[4] = FM monolayer, read-out: APD90 (%DD)
[5] = FM monolayer, read-out: CL (%DD)
[6] = FM monolayer, read-out: Trise (%DD)
[7] = MM monolayer, read-out: APD30 (%DD)
[8] = MM monolayer, read-out: APD90 (%DD)
[9] = MM monolayer, read-out: CL (%DD)
[10] = MM monolayer, read-out: Trise (%DD)
[11] = both FM and MM monolayers, concentration not given
[12] = FM monolayer, read-out: CtAmp (%DD)
[13] = FM monolayer, read-out: CtD50 (%DD)
[14] = MM monolayer, read-out: CtAmp (%DD)
[15] = MM monolayer, read-out: CtD50 (%DD)

Work on `COc1ccc([C@@H]2Sc3ccccc3N(CCN(C)C)C(=O)[C@@H]2OC(C)=O)cc1` [Diltiazem] yielded an activity at 0.01 µM [1, 3] of 98 ± 1.9%, an activity at 0.01 µM [1, 4] of 96 ± 1.1% and an activity at 0.01 µM [1, 5] of 102 ± 1.1%. It also gave an activity at 0.01 µM [1, 6] of 105 ± 17%, an activity at 0.03 µM [1, 3] of 92 ± 1.5% and an activity at 0.03 µM [1, 4] of 92 ± 0.9%. For the same compound, the activity at 0.03 µM [1, 5] was 103 ± 1.3%, the activity at 0.03 µM [1, 6] was 103 ± 12.5% and the activity at 0.1 µM [1, 3] was 76 ± 2.7%. For the same compound, the activity at 0.1 µM [1, 4] was 78 ± 2.2%, the activity at 0.1 µM [1, 5] was 96 ± 0.8% and the activity at 0.1 µM [1, 6] was 91 ± 12%. For the same compound, the activity at 0.3 µM [1, 3] was 60 ± 1.3%, the activity at 0.3 µM [1, 4] was 62 ± 1.1% and the activity at 0.3 µM [1, 5] was 85 ± 0.5%. The activity at 0.3 µM [1, 6] was 116 ± 13.8%, the activity at 0.01 µM [1, 7] was 100 ± 1.9% and the activity at 0.01 µM [1, 8] was 96 ± 0.6%. For the same compound, the activity at 0.01 µM [1, 9] was 98 ± 0.9%, the activity at 0.01 µM [1, 10] was 86 ± 16.4% and the activity at 0.03 µM [1, 7] was 91 ± 1.2%. It also gave an activity at 0.03 µM [1, 8] of 90 ± 0.7%, an activity at 0.03 µM [1, 9] of 96 ± 0.9% and an activity at 0.03 µM [1, 10] of 79 ± 4%. The activity at 0.1 µM [1, 7] was 80 ± 1.6%, the activity at 0.1 µM [1, 8] was 77 ± 1.2% and the activity at 0.1 µM [1, 9] was 83 ± 0.6%. It also gave an activity at 0.1 µM [1, 10] of 79 ± 14.3%, an activity at 0.3 µM [1, 7] of 65 ± 0.8% and an activity at 0.3 µM [1, 8] of 62 ± 0.9%. The activity at 0.3 µM [1, 9] was 71 ± 0.5%, the activity at 0.3 µM [1, 10] was 74 ± 8.9% and the “effect on APD30 (in words)” value [1, 11] was “shortening”. For the same compound, the “effect on APD90 (in words)” value [1, 11] was “shortening”, the “effect on beating rate / spontaneous rate (in words)” value ([1]; both FM and MM, concentration not given) was “increase” and the activity at 0.01 µM [2, 12] was 142 ± 27.5%. It also gave an activity at 0.01 µM [2, 13] of 103 ± 2.8%, an activity at 0.03 µM [2, 12] of 127 ± 27.9% and an activity at 0.03 µM [2, 13] of 95 ± 1.4%. It also gave an activity at 0.1 µM [2, 12] of 108 ± 33.5%, an activity at 0.1 µM [2, 13] of 82 ± 1.6% and an activity at 0.3 µM [2, 12] of 59 ± 15.4%. The activity at 0.3 µM [2, 13] was 68 ± 1.4%, the activity at 0.01 µM [2, 14] was 101 ± 11.1% and the activity at 0.01 µM [2, 15] was 105 ± 2.7%. It also gave an activity at 0.03 µM [2, 14] of 94 ± 7.8%, an activity at 0.03 µM [2, 15] of 99 ± 2.6% and an activity at 0.1 µM [2, 14] of 93 ± 6.2%. It also gave an activity at 0.1 µM [2, 15] of 81 ± 1.2%, an activity at 0.3 µM [2, 14] of 73 ± 5.8% and an activity at 0.3 µM [2, 15] of 61 ± 1.9%.

— article PMC10135569, “Does Enhanced Structural Maturity of hiPSC-Cardiomyocytes Better for the Detection of Drug-Induced Cardiotoxicity?” (Biomolecules, 2023)
